According to patent publication US9028806B2, “Method for impregnation with supercritical CO2” (Pierre Fabre Medicament, priority 2009, dated 2015):

Columns and labels:
[1] = Exploratory Pk on rats, oral route (bioavailability)
Method: The study was conducted with exploratory Pk on rats: 2 mg/kg in a single dose, oral route
Administration vehicle: distilled water (Aguettant)
Positive more Electrospray (ESI+) detection LC/MS/MS (liquid chromatography/mass spectrometry/mass spectrometry) bioanalysis method
Pharmacokinetic analysis with Kinetica (Thermo Instruments, US)

[2] = Dissolution kinetics of vinflunine in pH 6.8 buffer; type: physicochemical; conditions: equivalent to 50 mg vinflunine in 50 ml pH 6.8 buffer, 400 rpm
Method: In a 100 ml Erlenmeyer, introduce an accurately measured test sample equivalent to 50 mg of vinflunine. Add 50 ml of pH 6.8 buffer. Place under magnetic stirring at 400 rpm. Take a 2 ml sample under magnetic stirring at 15, 30, 60 and 120 minutes. Filter these samples on Gelman GHP Acrodisc 0.45 μm polypropylene filters. The solution should be clear.
Determine the vinflunine content by means of liquid chromatography.

[3] = Dissolution kinetics of ketoprofen in water at 37° C.; type: physicochemical; conditions: equivalent to 50 mg ketoprofen in 50 ml water, 400 rpm
Method: In a 100 ml Erlenmeyer, introduce an accurately measured test sample equivalent to 50 mg of ketoprofen, pure or impregnating the cross-linked PVP. Add 50 ml of water. Place under magnetic stirring at 400 rpm in a water bath at 37° C.+/−2° C. […] Filter these samples on Gelman GHP Acrodisc 0.45 μm polypropylene filters. The solution should be clear.
Determine the ketoprofen content by means of liquid chromatography.

Structure (SMILES) | CL ([1]; fasted rats, 2 mg/kg single dose, oral route) [L/h] | Vinflunine level at 0 ([1]; fasted rats, 2 mg/kg single dose, oral route, time 0) | Vinflunine level at 0.25 ([1]; fasted rats, 2 mg/kg single dose, oral route, time 0.25) | Vinflunine level at 0.5 ([1]; fasted rats, 2 mg/kg single dose, oral route, time 0.5) | Vinflunine level at 1 ([1]; fasted rats, 2 mg/kg single dose, oral route, time 1) | Vinflunine level at 2 ([1]; fasted rats, 2 mg/kg single dose, oral route, time 2) | Vinflunine level at 4 ([1]; fasted rats, 2 mg/kg single dose, oral route, time 4) | Vinflunine level at 6 ([1]; fasted rats, 2 mg/kg single dose, oral route, time 6) | Vinflunine level at 8 ([1]; fasted rats, 2 mg/kg single dose, oral route, time 8) | Vinflunine level at 24 ([1]; fasted rats, 2 mg/kg single dose, oral route, time 24) | AUC(0-t) ([1]; rat, in vivo, po, 2 mg/kg) [ng·h/mL] | Cmax ([1]; rat, in vivo, po, 2 mg/kg) [ng/mL] | Tmax ([1]; rat, in vivo, po, 2 mg/kg) [h] | half-life ([1]; rat, in vivo, po, 2 mg/kg) [h] | Vinflunine Dissolution 15 min ([2]; 15 min) [µg/mL] | Vinflunine Dissolution 30 min ([2]; 30 min) [µg/mL] | Vinflunine Dissolution 60 min ([2]; 60 min) [µg/mL] | Vinflunine Dissolution 120 min ([2]; 120 min) [µg/mL] | Ketoprofen Dissolution 15 min ([3]; 15 min) [µg/mL] | Ketoprofen Dissolution 60 min ([3]; 60 min) [µg/mL]
CC[C@]12C=CCN3CC[C@@]4(c5cc([C@@]6(C(=O)OC)C[C@@H]7C[C@@H](C(C)(F)F)CN(Cc8c6[nH]c6ccccc86)C7)c(OC)cc5N(C)[C@H]4[C@@](O)(C(=O)OC)[C@@H]1OC(C)=O)[C@@H]32 [Vinflunine base, Vinflunine] | 8.70 | 0 | 19.37 | 11.75 | 17.90 | 14.93 | 13.80 | 12.03 | 10.88 | 2.59 | 200 | 19.4 | 0.25 | 7.9 | 252 | 387 | 520 | 606 | – | –
CC(C(=O)O)c1cccc(C(=O)c2ccccc2)c1 (centres unmarked) [ketoprofen, Ketoprofen] | – | – | – | – | – | – | – | – | – | – | – | – | – | – | – | – | – | – | 173 | 171
